From PubChem BioAssay AID1963971 (Molecular Pharmacology Branch, DTP, NCI, 2024)

Tested on: 953936-095-R-J2-PDC spheroids with HUVEC/MSC, viability
Assay: Anticancer human tumor 953936-095-R-J2-PDC patient-derived cervical squamous cell carcinoma cell line growth inhibition [PI3K]
Details: for IC50: curve of first compound; for viability, T/C: stronger effect = lower value
Procedure, shortened: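 Viability of mixed-cell spheroids was determined after exposure to pairwise combinations, one partner being inavolisib, alpelisib, duvelisib or copanlisib. Highest tested concentration matched clinical Cmax where known and 10 microM where not, descending in half-log steps.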

[1] = second compound 0.0316 µM, first compound 0.0316 µM
[2] = second compound 0.0316 µM, first compound 0.1 µM
[3] = second compound 0.0316 µM, first compound 0.316 µM
[4] = second compound 0.0316 µM, first compound 1 µM
[5] = second compound 0.0316 µM, first compound 3.16 µM
[6] = second compound 0.0316 µM, first compound 10 µM
[7] = second compound 0.1 µM, first compound 0.0316 µM
[8] = second compound 0.1 µM, first compound 0.1 µM
[9] = second compound 0.1 µM, first compound 0.316 µM
[10] = second compound 0.1 µM, first compound 1 µM
[11] = second compound 0.1 µM, first compound 3.16 µM
[12] = second compound 0.1 µM, first compound 10 µM
[13] = second compound 0.316 µM, first compound 0.0316 µM
[14] = second compound 0.316 µM, first compound 0.1 µM
[15] = second compound 0.316 µM, first compound 0.316 µM
[16] = second compound 0.316 µM, first compound 1 µM
[17] = second compound 0.316 µM, first compound 3.16 µM
[18] = second compound 0.316 µM, first compound 10 µM
[19] = second compound 1 µM, first compound 0.0316 µM
[20] = second compound 1 µM, first compound 0.1 µM
[21] = second compound 1 µM, first compound 0.316 µM
[22] = second compound 1 µM, first compound 1 µM
[23] = second compound 1 µM, first compound 3.16 µM
[24] = second compound 1 µM, first compound 10 µM
[25] = second compound 3.16 µM, first compound 0.0316 µM
[26] = second compound 3.16 µM, first compound 0.1 µM
[27] = second compound 3.16 µM, first compound 0.316 µM
[28] = second compound 3.16 µM, first compound 1 µM
[29] = second compound 3.16 µM, first compound 3.16 µM
[30] = second compound 3.16 µM, first compound 10 µM
[31] = second compound 10 µM, first compound 0.0316 µM
[32] = second compound 10 µM, first compound 0.1 µM
[33] = second compound 10 µM, first compound 0.316 µM
[34] = second compound 10 µM, first compound 1 µM
[35] = second compound 10 µM, first compound 3.16 µM
[36] = second compound 10 µM, first compound 10 µM
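Note: spheroids exposed to compounds for seven days before read-out.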

C#Cc1c(F)ccc2cc(O)cc(-c3ncc4c(N5CC6CCC(C5)N6)nc(OCC56CCCN5CC(F)C6)nc4c3F)c12 (stereo not drawn) + CC(Nc1ncnc2nc[nH]c12)c1cc2cccc(Cl)c2c(=O)n1-c1ccccc1
IC50 (second compound 0.0316 µM): > 10 µM
IC50 (second compound 0.1 µM): > 10 µM
IC50 (second compound 0.316 µM): > 10 µM
IC50 (second compound 1 µM): > 10 µM
IC50 (second compound 3.16 µM): 6.34 µM
IC50 (second compound 10 µM): 1.8 µM
viability, T/C [1]: 90.6%
viability, T/C [2]: 91.9%
viability, T/C [3]: 105%
viability, T/C [4]: 97.1%
viability, T/C [5]: 91.3%
viability, T/C [6]: 67.2%
viability, T/C [7]: 95.2%
viability, T/C [8]: 98.3%
viability, T/C [9]: 99.9%
viability, T/C [10]: 104%
viability, T/C [11]: 80.2%
viability, T/C [12]: 70.8%
viability, T/C [13]: 94%
viability, T/C [14]: 95.2%
viability, T/C [15]: 90.5%
viability, T/C [16]: 82.2%
viability, T/C [17]: 75.2%
viability, T/C [18]: 67.8%
viability, T/C [19]: 96.2%
viability, T/C [20]: 83.5%
viability, T/C [21]: 84.7%
viability, T/C [22]: 86.9%
viability, T/C [23]: 80%
viability, T/C [24]: 57.2%
viability, T/C [25]: 87.9%
viability, T/C [26]: 79.5%
viability, T/C [27]: 76%
viability, T/C [28]: 74.3%
viability, T/C [29]: 60.3%
viability, T/C [30]: 42.6%
viability, T/C [31]: 55.8%
viability, T/C [32]: 65.4%
viability, T/C [33]: 51.7%
viability, T/C [34]: 57.3%
viability, T/C [35]: 43.3%
viability, T/C [36]: 31.2%

CC(Cn1ccc(-c2ccc(C#N)c(Cl)c2)n1)NC(=O)c1cc(C(C)O)[nH]n1 (stereo not drawn) + CC(Nc1ncnc2nc[nH]c12)c1cc2cccc(Cl)c2c(=O)n1-c1ccccc1
IC50 (second compound 0.0316 µM): > 10 µM
IC50 (second compound 0.1 µM): > 10 µM
IC50 (second compound 0.316 µM): > 10 µM
IC50 (second compound 1 µM): > 10 µM
IC50 (second compound 3.16 µM): > 10 µM
IC50 (second compound 10 µM): > 10 µM
viability, T/C [1]: 97.5%
viability, T/C [2]: 100%
viability, T/C [3]: 101%
viability, T/C [4]: 91.1%
viability, T/C [5]: 108%
viability, T/C [6]: 96%
viability, T/C [7]: 98.4%
viability, T/C [8]: 106%
viability, T/C [9]: 93.6%
viability, T/C [10]: 109%
viability, T/C [11]: 101%
viability, T/C [12]: 93.5%
viability, T/C [13]: 107%
viability, T/C [14]: 85.7%
viability, T/C [15]: 90.8%
viability, T/C [16]: 88.6%
viability, T/C [17]: 92.8%
viability, T/C [18]: 93.4%
viability, T/C [19]: 98.2%
viability, T/C [20]: 91.7%
viability, T/C [21]: 91.7%
viability, T/C [22]: 94.4%
viability, T/C [23]: 97.7%
viability, T/C [24]: 90.1%
viability, T/C [25]: 83.7%
viability, T/C [26]: 73.6%
viability, T/C [27]: 72.2%
viability, T/C [28]: 75.9%
viability, T/C [29]: 79.9%
viability, T/C [30]: 70.7%
viability, T/C [31]: 55.7%
viability, T/C [32]: 56%
viability, T/C [33]: 62.8%
viability, T/C [34]: 60.5%
viability, T/C [35]: 59.3%
viability, T/C [36]: 58.8%

CC1(C)CCC(Nc2ncc(C(F)(F)F)c(-c3c[nH]c4c(P(C)(C)=O)c(C#N)ccc34)n2)CN1 (stereo not drawn) + CC(Nc1ncnc2nc[nH]c12)c1cc2cccc(Cl)c2c(=O)n1-c1ccccc1
IC50 (second compound 0.0316 µM): 3.67 µM
IC50 (second compound 0.1 µM): 3.37 µM
IC50 (second compound 0.316 µM): 3.39 µM
IC50 (second compound 1 µM): 1.78 µM
IC50 (second compound 3.16 µM): < 0.0316 µM
IC50 (second compound 10 µM): < 0.0316 µM
viability, T/C [1]: 52.6%
viability, T/C [2]: 55.8%
viability, T/C [3]: 57.6%
viability, T/C [4]: 61.3%
viability, T/C [5]: 56.1%
viability, T/C [6]: 7.92%
viability, T/C [7]: 52.2%
viability, T/C [8]: 53.5%
viability, T/C [9]: 53.7%
viability, T/C [10]: 62.5%
viability, T/C [11]: 51.9%
viability, T/C [12]: 6.89%
viability, T/C [13]: 60.1%
viability, T/C [14]: 53.2%
viability, T/C [15]: 44.6%
viability, T/C [16]: 49.9%
viability, T/C [17]: 56.3%
viability, T/C [18]: 6.08%
viability, T/C [19]: 59.9%
viability, T/C [20]: 49.7%
viability, T/C [21]: 49.2%
viability, T/C [22]: 46.3%
viability, T/C [23]: 49.2%
viability, T/C [24]: 5.38%
viability, T/C [25]: 45.9%
viability, T/C [26]: 46.7%
viability, T/C [27]: 49.3%
viability, T/C [28]: 44.5%
viability, T/C [29]: 45.7%
viability, T/C [30]: 3.11%
viability, T/C [31]: 38%
viability, T/C [32]: 36.5%
viability, T/C [33]: 38.4%
viability, T/C [34]: 39.6%
viability, T/C [35]: 42.1%
viability, T/C [36]: 1.76%

Cn1cnc2c(F)c(Nc3ccc(Br)cc3Cl)c(C(=O)NOCCO)cc21 + COc1c(OCCCN2CCOCC2)ccc2c3n(c(=NC(=O)c4cnc(N)nc4)nc12)CCN3
IC50 (second compound 0.00316 µM): 0.37 µM
IC50 (second compound 0.01 µM): 0.081 µM
IC50 (second compound 0.0316 µM): < 0.00949 µM
IC50 (second compound 0.1 µM): < 0.00949 µM
IC50 (second compound 0.316 µM): < 0.00949 µM
IC50 (second compound 1 µM): < 0.00949 µM
viability, T/C (second compound 0.00316 µM, first compound 0.00949 µM): 65.8%
viability, T/C (second compound 0.00316 µM, first compound 0.03 µM): 69.6%
viability, T/C (second compound 0.00316 µM, first compound 0.0949 µM): 52%
viability, T/C (second compound 0.00316 µM, first compound 0.3 µM): 59.1%
viability, T/C (second compound 0.00316 µM, first compound 0.949 µM): 36.6%
viability, T/C (second compound 0.00316 µM, first compound 3 µM): 25.4%
viability, T/C (second compound 0.01 µM, first compound 0.00949 µM): 63.4%
viability, T/C (second compound 0.01 µM, first compound 0.03 µM): 58.8%
viability, T/C (second compound 0.01 µM, first compound 0.0949 µM): 45.9%
viability, T/C (second compound 0.01 µM, first compound 0.3 µM): 42.1%
viability, T/C (second compound 0.01 µM, first compound 0.949 µM): 26.2%
viability, T/C (second compound 0.01 µM, first compound 3 µM): 18.3%
viability, T/C (second compound 0.0316 µM, first compound 0.00949 µM): 36.7%
viability, T/C (second compound 0.0316 µM, first compound 0.03 µM): 33.1%
viability, T/C (second compound 0.0316 µM, first compound 0.0949 µM): 19.7%
viability, T/C (second compound 0.0316 µM, first compound 0.3 µM): 15.4%
viability, T/C (second compound 0.0316 µM, first compound 0.949 µM): 7.92%
viability, T/C (second compound 0.0316 µM, first compound 3 µM): 4.93%
viability, T/C (second compound 0.1 µM, first compound 0.00949 µM): 12.6%
viability, T/C (second compound 0.1 µM, first compound 0.03 µM): 8.91%
viability, T/C (second compound 0.1 µM, first compound 0.0949 µM): 5.78%
viability, T/C (second compound 0.1 µM, first compound 0.3 µM): 3.64%
viability, T/C (second compound 0.1 µM, first compound 0.949 µM): 2.7%
viability, T/C (second compound 0.1 µM, first compound 3 µM): 0.27%
viability, T/C (second compound 0.316 µM, first compound 0.00949 µM): 3.5%
viability, T/C (second compound 0.316 µM, first compound 0.03 µM): 2.08%
viability, T/C (second compound 0.316 µM, first compound 0.0949 µM): 1.09%
viability, T/C (second compound 0.316 µM, first compound 0.3 µM): 0.45%
viability, T/C (second compound 0.316 µM, first compound 0.949 µM): 0.15%
viability, T/C (second compound 0.316 µM, first compound 3 µM): 0.17%
viability, T/C (second compound 1 µM, first compound 0.00949 µM): 0.66%
viability, T/C (second compound 1 µM, first compound 0.03 µM): 0.31%
viability, T/C (second compound 1 µM, first compound 0.0949 µM): 0.21%
viability, T/C (second compound 1 µM, first compound 0.3 µM): 0.16%
viability, T/C (second compound 1 µM, first compound 0.949 µM): 0.15%
viability, T/C (second compound 1 µM, first compound 3 µM): 0.2%
